Experimental data published in patent US10597375B2, “Halogen-substituted heterocyclic compound” (UBE INDUSTRIES, LTD., priority 2012, dated 2020).

tested on: A2058 human melanoma cells; experiment: Cell migration test (LPA-induced, Chemo-Tx); format: cell-based; settings: LPA 100 nM, 3 hours, read-out: IC50: concentration of the test compound which inhibits the cell migration activity of LPA by 50%
Method: The cell migration test was carried out using Chemo-Tx (registered trademark) (116-8, Neuro Probe). A2058 human melanoma cells (obtained from European Collection of Cell Culture) were cultured in a serum-free EMEM medium for 24 hours, and then re-suspended in a 0.1% BSA-containing DMEM medium to obtain a cell suspension. The test compound dissolved in DMSO in various concentration was each added to the cell suspension, and the suspension was cultured at 37° C. for 15 minutes (the final DMSO concentration of 0.5%). LPA dissolved in a 0.1% BSA-containing DMEM medium (the final concentration of 100 nM) was added to Chemo-Tx 96 well plate, and a Chemo-Tx filter which had been coated with 0.001% Fibronectin on the both surfaces was put on the plate. The suspension of cultured cells (25,000 cells) was added onto the upper surface of the filter and further cultured at 37° C. for 3 hours, and the cells on the upper surface of the filter were removed. After the filter was removed and dried, the cells which had migrated to the lower surface of the filter were stained using Diff-Quik stain (16920, Sysmex). The absorbance of the filter (570 nm) was measured and the concentration of the test compound which inhibits the cell migration activity of LPA by 50%, (1050) was determined by non-linear regression analysis using EXSAS (version 7.6.0, Arm Systex).

Row | SMILES | IC50
1 | CC(OC(=O)Nc1cc(F)sc1-c1ccc(-c2ccc(C3(C(=O)O)CC3)cc2)cc1)c1cc(F)c(F)cc1F (racemic) [I-171, (RS)-1-{4′-[5-Fluoro-3-({[1-(2,4,5-trifluorophenyl)ethoxy]carbonyl}amino)thiophen-2-yl]-[1,1′-biphenyl]-4-yl}cyclopropanecarboxylic acid] | ≤ 200 nM
2 | Cc1cscc1C(C)OC(=O)Nc1cc(Cl)sc1-c1ccc(-c2ccc(C3(C(=O)O)CC3)cc2)cc1 (racemic) [I-605, (RS)-1-{4′-[5-Chloro-3-({[1-(4-methylthiophen-3-yl)ethoxy]carbonyl}amino)thiophen-2-yl]-[1,1′-biphenyl]-4-yl}cyclopropanecarboxylic acid] | ≤ 200 nM
3 | CC(OC(=O)Nc1cc(Cl)sc1-c1ccc(-c2ccc(C3(C(=O)O)CC3)cc2)cc1)c1cnsc1 (racemic) [I-625, (RS)-1-{4′-[5-Chloro-3-({[1-(isothiazol-4-yl)ethoxy]carbonyl}amino)thiophen-2-yl]-[1,1′-biphenyl]-4-yl}cyclopropanecarboxylic acid] | ≤ 200 nM
4 | COc1cc(-c2sc(Cl)cc2NC(=O)OC(C)c2cscc2C)ccc1-c1ccc(C2(C(=O)O)CC2)cc1 (racemic) [I-783, (RS)-1-{4′-[5-Chloro-3-({[1-(4-methylthiophen-3-yl)ethoxy]carbonyl}amino)thiophen-2-yl]-2′-methoxy-[1,1′-biphenyl]-4-yl}cyclopropanecarboxylic acid] | ≤ 200 nM
5 | COc1cc(-c2sc(Cl)cc2NC(=O)OC(C)c2cscc2Cl)ccc1-c1ccc(C2(C(=O)O)CC2)cc1 (racemic) [I-791, (RS)-1-{4′-[5-Chloro-3-({[1-(4-chlorothiophen-3-yl)ethoxy]carbonyl}amino)thiophen-2-yl]-2′-methoxy-[1,1′-biphenyl]-4-yl}cyclopropanecarboxylic acid] | ≤ 200 nM
6 | COc1cc(-c2sc(F)cc2NC(=O)OC(C)c2cscc2C)ccc1-c1ccc(C2(C(=O)O)CC2)cc1 (racemic) [I-815, (RS)-1-{4′-[5-Fluoro-3-({[1-(4-methylthiophen-3-yl)ethoxy]carbonyl}amino)thiophen-2-yl]-2′-methoxy-[1,1′-biphenyl]-4-yl}cyclopropanecarboxylic acid] | ≤ 200 nM
7 | C[C@@H](OC(=O)Nc1cc(Cl)sc1-c1ccc(-c2ccc(C3(C(=O)O)CC3)cc2)cc1)c1ccc(F)c(F)c1 [I-72, (R)-1-{4′-[5-Chloro-3-({[1-(3,4-difluorophenyl)ethoxy]carbonyl}amino)thiophen-2-yl]-[1,1′-biphenyl]-4-yl}cyclopropanecarboxylic acid] | ≤ 200 nM
8 | COc1cc(-c2sc(Cl)cc2NC(=O)O[C@H](C)c2ccc(F)cc2Cl)ccc1-c1ccc(C2(C(=O)O)CC2)cc1 [I-396, (R)-1-{4′-[5-Chloro-3-({[1-(2-chloro-4-fluorophenyl)ethoxy]carbonyl}amino)thiophen-2-yl]-2′-methoxy-[1,1′-biphenyl]-4-yl}cyclopropanecarboxylic acid] | ≤ 200 nM
9 | COc1cc(-c2sc(F)cc2NC(=O)O[C@H](C)c2ccc(F)cc2F)ccc1-c1ccc(C2(C(=O)O)CC2)cc1 [I-454, (R)-1-{4′-[3-({[1-(2,4-Difluorophenyl)ethoxy]carbonyl}amino)-5-fluorothiophen-2-yl]-2′-methoxy-[1,1′-biphenyl]-4-yl}cyclopropanecarboxylic acid] | ≤ 200 nM
10 | COc1cc(-c2sc(F)cc2NC(=O)O[C@H](C)c2ccc(F)cc2Cl)ccc1-c1ccc(C2(C(=O)O)CC2)cc1 [I-466, (R)-1-{4′-[3-({[1-(2-Chloro-4-fluorophenyl)ethoxy]carbonyl}amino)-5-fluorothiophen-2-yl]-2′-methoxy-[1,1′-biphenyl]-4-yl}cyclopropanecarboxylic acid] | ≤ 200 nM
11 | C[C@@H](OC(=O)Nc1cc(Cl)sc1-c1ccc(-c2ccc(C3(C(=O)O)CC3)cc2)c([N+](=O)[O-])c1)c1ccccc1 [I-490, (R)-1-[4′-(5-Chloro-3-{[(1-phenylethoxy)carbonyl]amino}thiophen-2-yl)-2′-nitro-[1,1′-biphenyl]-4-yl]cyclopropanecarboxylic acid] | ≤ 200 nM
12 | C[C@@H](OC(=O)Nc1cc(Cl)sc1-c1ccc(-c2ccc(C3(C(=O)O)CC3)cc2)c([N+](=O)[O-])c1)c1ccc(F)cc1 [I-498, (R)-1-{4′-[5-Chloro-3-({[1-(4-fluorophenyl)ethoxy]carbonyl}amino)thiophen-2-yl]-2′-nitro-[1,1′-biphenyl]-4-yl}cyclopropanecarboxylic acid] | ≤ 200 nM
13 | C[C@@H](OC(=O)Nc1cc(Cl)sc1-c1ccc(-c2ccc(C3(C(=O)O)CC3)cc2)c([N+](=O)[O-])c1)c1ccccc1Cl [I-502, (R)-1-{4′-[5-Chloro-3-({[1-(2-chlorophenyl)ethoxy]carbonyl}amino)thiophen-2-yl]-2′-nitro-[1,1′-biphenyl]-4-yl}cyclopropanecarboxylic acid] | ≤ 200 nM
14 | C[C@@H](OC(=O)Nc1cc(F)sc1-c1ccc(-c2ccc(C3(C(=O)O)CC3)cc2)cc1)c1cccs1 [I-674, (R)-1-{4′-[5-Fluoro-3-({[1-(thiophen-2-yl)ethoxy]carbonyl}amino)thiophen-2-yl]-[1,1′-biphenyl]-4-yl}cyclopropanecarboxylic acid] | ≤ 200 nM
15 | COc1cc(-c2sc(Cl)cc2NC(=O)O[C@H](C)c2cccs2)ccc1-c1ccc(C2(C(=O)O)CC2)cc1 [I-808, (R)-1-{4′-[5-Chloro-3-({[1-(thiophen-2-yl)ethoxy]carbonyl}amino)thiophen-2-yl]-2′-methoxy-[1,1′-biphenyl]-4-yl}cyclopropanecarboxylic acid] | ≤ 200 nM

The next lines start with the values.

Row | IC50 | SMILES
16 | ≤ 200 nM | COc1cc(-c2sc(F)cc2NC(=O)OC(C)c2cc(F)ccc2Cl)ccc1-c1ccc(C2(C(=O)O)CC2)cc1 (racemic) [I-469, (RS)-1-{4′-[3-({[1-(2-Chloro-5-fluorophenyl)ethoxy]carbonyl}amino)-5-fluorothiophen-2-yl]-2′-methoxy-[1,1′-biphenyl]-4-yl}cyclopropanecarboxylic acid]
17 | ≤ 200 nM | COc1cc(-c2sc(F)cc2NC(=O)OC(C)c2ccc(F)cc2C)ccc1-c1ccc(C2(C(=O)O)CC2)cc1 (racemic) [I-477, (RS)-1-{4′-[5-Fluoro-3-({[1-(4-fluoro-2-methylphenyl)ethoxy]carbonyl}amino)thiophen-2-yl]-2′-methoxy-[1,1′-biphenyl]-4-yl}cyclopropanecarboxylic acid]
18 | ≤ 200 nM | COc1cc(-c2sc(F)cc2NC(=O)OC(C)c2cc(F)ccc2C)ccc1-c1ccc(C2(C(=O)O)CC2)cc1 (racemic) [I-481, (RS)-1-{4′-[5-Fluoro-3-({[1-(5-fluoro-2-methylphenyl)ethoxy]carbonyl}amino)thiophen-2-yl]-2′-methoxy-[1,1′-biphenyl]-4-yl}cyclopropanecarboxylic acid]
19 | ≤ 200 nM | CC(OC(=O)Nc1cc(Cl)sc1-c1ccc(-c2ccc(C3(C(=O)O)CC3)cc2)cc1)c1ccsc1 (racemic) [I-595, (RS)-1-{4′-[5-Chloro-3-({[1-(thiophen-3-yl)ethoxy]carbonyl}amino)thiophen-2-yl]-[1,1′-biphenyl]-4-yl}cyclopropanecarboxylic acid]
20 | ≤ 200 nM | CC(OC(=O)Nc1cc(Cl)sc1-c1ccc(-c2ccc(C3(C(=O)O)CC3)cc2)cc1)c1ccsn1 (racemic) [I-621]
21 | ≤ 200 nM | COc1cc(-c2sc(Cl)cc2NC(=O)OC(C)c2ccsc2)ccc1-c1ccc(C2(C(=O)O)CC2)cc1 (racemic) [I-779, (RS)-1-{4′-[5-Chloro-3-({[1-(thiophen-3-yl)ethoxy]carbonyl}amino)thiophen-2-yl]-2′-methoxy-[1,1′-biphenyl]-4-yl}cyclopropanecarboxylic acid]
22 | ≤ 200 nM | COc1cc(-c2sc(F)cc2NC(=O)OC(C)c2cscc2Cl)ccc1-c1ccc(C2(C(=O)O)CC2)cc1 (racemic) [I-823, (RS)-1-{4′-[3-({[1-(4-Chlorothiophen-3-yl)ethoxy]carbonyl}amino)-5-fluorothiophen-2-yl]-2′-methoxy-[1,1′-biphenyl]-4-yl}cyclopropanecarboxylic acid]
23 | ≤ 200 nM | C[C@@H](OC(=O)Nc1cc(F)sc1-c1ccc(-c2ccc(C3(C(=O)O)CC3)cc2)cc1)c1ccc(F)c(F)c1 [I-148, (R)-1-{4′-[3-({[1-(3,4-Difluorophenyl)ethoxy]carbonyl}amino)-5-fluorothiophen-2-yl]-[1,1′-biphenyl]-4-yl}cyclopropanecarboxylic acid]
24 | ≤ 200 nM | COc1cc(-c2sc(F)cc2NC(=O)O[C@H](C)c2ccc(Cl)cc2)ccc1-c1ccc(C2(C(=O)O)CC2)cc1 [I-446, (R)-1-{4′-[3-({[1-(4-Chlorophenyl)ethoxy]carbonyl}amino)-5-fluorothiophen-2-yl]-2′-methoxy-[1,1′-biphenyl]-4-yl}cyclopropanecarboxylic acid]
25 | ≤ 200 nM | C[C@@H](OC(=O)Nc1cc(Cl)sc1-c1ccc(-c2ccc(C3(C(=O)O)CC3)cc2)c(N)c1)c1ccccc1 [I-534]
26 | ≤ 200 nM | C[C@@H](OC(=O)Nc1cc(Cl)sc1-c1ccc(-c2ccc(C3(C(=O)O)CC3)cc2)cc1)c1cccs1 [I-630, (R)-1-{4′-[5-Chloro-3-({[1-(thiophen-2-yl)ethoxy]carbonyl}amino)thiophen-2-yl]-[1,1′-biphenyl]-4-yl}cyclopropanecarboxylic acid]
